ChEMBL document CHEMBL4308824, “Design of Small Molecule Autophagy Modulators: A Promising Druggable Strategy” (J Med Chem, 2018)
Structures can show the parent of a compound that is named as a salt.

Experiments:
BT-474 = test: Cytotoxicity against human BT474 cells assessed as reduction in cell viability after 48 hrs by MTT assay; type: functional, cell-based; settings: BT-474, 48 h
[1] = Dissociation constant, pKa of compound; type: physicochemical
[2] = target: T1, Serine/threonine-protein kinase ULK2 (Homo sapiens, UniProt Q8IYT8); test: Inhibition of ULK2 (unknown origin)
T1 sequence (Q8IYT8 whole entry): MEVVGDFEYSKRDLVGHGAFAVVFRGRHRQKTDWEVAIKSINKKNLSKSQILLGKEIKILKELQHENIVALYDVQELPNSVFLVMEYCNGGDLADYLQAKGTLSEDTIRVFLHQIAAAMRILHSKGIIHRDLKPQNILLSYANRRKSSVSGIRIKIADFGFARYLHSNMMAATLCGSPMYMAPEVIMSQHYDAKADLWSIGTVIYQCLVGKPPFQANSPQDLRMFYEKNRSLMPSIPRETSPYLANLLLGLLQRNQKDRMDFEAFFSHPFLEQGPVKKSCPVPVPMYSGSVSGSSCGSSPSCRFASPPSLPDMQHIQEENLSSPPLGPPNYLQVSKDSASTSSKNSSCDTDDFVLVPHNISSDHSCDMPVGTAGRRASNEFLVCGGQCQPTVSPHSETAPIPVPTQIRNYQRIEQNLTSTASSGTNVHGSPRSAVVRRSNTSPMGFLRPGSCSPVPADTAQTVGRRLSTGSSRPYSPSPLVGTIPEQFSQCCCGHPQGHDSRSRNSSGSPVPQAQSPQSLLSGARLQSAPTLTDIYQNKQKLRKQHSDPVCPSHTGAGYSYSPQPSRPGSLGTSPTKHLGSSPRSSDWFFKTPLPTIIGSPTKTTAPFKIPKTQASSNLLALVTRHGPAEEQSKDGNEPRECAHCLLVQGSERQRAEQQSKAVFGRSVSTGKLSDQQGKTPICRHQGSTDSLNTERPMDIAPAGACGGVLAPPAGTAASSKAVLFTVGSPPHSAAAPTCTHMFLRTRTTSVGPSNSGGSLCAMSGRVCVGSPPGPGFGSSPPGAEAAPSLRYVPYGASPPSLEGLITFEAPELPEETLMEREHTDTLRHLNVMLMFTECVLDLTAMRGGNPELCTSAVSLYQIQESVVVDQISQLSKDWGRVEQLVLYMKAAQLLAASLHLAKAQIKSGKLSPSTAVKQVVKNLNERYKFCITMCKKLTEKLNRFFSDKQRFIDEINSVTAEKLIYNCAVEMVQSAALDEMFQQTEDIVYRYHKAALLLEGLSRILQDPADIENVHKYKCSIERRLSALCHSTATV

[3] = target: T1, Serine/threonine-protein kinase ULK2
[4] = target: T2, Serine/threonine-protein kinase ULK1 (Homo sapiens, UniProt O75385)
T2 sequence (O75385 whole entry): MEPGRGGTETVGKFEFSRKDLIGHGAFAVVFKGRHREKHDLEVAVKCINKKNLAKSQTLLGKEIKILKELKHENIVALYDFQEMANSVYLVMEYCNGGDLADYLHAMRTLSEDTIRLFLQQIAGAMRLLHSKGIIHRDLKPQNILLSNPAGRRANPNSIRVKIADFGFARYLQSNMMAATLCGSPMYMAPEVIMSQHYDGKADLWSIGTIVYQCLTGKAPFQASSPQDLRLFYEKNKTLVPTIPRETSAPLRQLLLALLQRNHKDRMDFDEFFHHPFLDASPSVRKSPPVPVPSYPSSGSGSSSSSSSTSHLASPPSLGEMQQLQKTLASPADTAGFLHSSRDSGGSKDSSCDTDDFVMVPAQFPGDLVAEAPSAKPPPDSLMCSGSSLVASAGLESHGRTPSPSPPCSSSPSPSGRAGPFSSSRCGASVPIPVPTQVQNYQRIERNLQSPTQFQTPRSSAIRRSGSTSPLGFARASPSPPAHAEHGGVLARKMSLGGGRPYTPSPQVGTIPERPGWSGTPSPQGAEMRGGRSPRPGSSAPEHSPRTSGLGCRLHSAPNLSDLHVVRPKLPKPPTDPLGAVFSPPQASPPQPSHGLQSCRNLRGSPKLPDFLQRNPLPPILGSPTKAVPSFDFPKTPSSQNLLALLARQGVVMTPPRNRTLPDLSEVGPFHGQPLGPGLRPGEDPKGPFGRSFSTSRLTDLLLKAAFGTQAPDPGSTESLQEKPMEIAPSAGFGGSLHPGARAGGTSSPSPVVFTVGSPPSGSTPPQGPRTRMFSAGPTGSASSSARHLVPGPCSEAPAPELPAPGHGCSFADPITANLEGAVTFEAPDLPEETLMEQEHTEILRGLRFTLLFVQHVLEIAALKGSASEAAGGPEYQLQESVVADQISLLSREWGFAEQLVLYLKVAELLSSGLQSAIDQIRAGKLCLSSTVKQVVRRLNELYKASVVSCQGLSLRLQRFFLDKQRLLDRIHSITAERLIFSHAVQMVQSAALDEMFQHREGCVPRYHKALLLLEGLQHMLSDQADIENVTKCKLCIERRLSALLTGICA

mTORC1 = mTORC1 (Homo sapiens, UniProt P42345); type: protein-complex assay
mTORC2 = mTORC2 (Homo sapiens, UniProt P42345); type: protein-complex assay
[5] = target: AMP-activated protein kinase (AMPK) alpha-1/beta-1/gamma-1 (Homo sapiens, UniProt P54619+Q13131+Q9Y478); test: Activation of recombinant human AMPK alpha1/beta1/gamma1 (unknown origin) using SAMS peptide as substrate preincubated for 20 mins followed by substrate and gamma-[32]P-ATP addition and measured after 30 mins by liquid scintillation counting method; type: protein-complex assay
MDA-MB-231 = test: Cytotoxicity against human MDA-MB-231 cells assessed as reduction in cell viability at 750 nM after 24 hrs by MTT assay relative to control; type: functional
[6] = target: T3, Phosphatidylinositol 4,5-bisphosphate 3-kinase catalytic subunit delta isoform (Homo sapiens, UniProt O00329); test: Inhibition of PI3K p110delta (unknown origin)
T3 sequence (O00329 whole entry): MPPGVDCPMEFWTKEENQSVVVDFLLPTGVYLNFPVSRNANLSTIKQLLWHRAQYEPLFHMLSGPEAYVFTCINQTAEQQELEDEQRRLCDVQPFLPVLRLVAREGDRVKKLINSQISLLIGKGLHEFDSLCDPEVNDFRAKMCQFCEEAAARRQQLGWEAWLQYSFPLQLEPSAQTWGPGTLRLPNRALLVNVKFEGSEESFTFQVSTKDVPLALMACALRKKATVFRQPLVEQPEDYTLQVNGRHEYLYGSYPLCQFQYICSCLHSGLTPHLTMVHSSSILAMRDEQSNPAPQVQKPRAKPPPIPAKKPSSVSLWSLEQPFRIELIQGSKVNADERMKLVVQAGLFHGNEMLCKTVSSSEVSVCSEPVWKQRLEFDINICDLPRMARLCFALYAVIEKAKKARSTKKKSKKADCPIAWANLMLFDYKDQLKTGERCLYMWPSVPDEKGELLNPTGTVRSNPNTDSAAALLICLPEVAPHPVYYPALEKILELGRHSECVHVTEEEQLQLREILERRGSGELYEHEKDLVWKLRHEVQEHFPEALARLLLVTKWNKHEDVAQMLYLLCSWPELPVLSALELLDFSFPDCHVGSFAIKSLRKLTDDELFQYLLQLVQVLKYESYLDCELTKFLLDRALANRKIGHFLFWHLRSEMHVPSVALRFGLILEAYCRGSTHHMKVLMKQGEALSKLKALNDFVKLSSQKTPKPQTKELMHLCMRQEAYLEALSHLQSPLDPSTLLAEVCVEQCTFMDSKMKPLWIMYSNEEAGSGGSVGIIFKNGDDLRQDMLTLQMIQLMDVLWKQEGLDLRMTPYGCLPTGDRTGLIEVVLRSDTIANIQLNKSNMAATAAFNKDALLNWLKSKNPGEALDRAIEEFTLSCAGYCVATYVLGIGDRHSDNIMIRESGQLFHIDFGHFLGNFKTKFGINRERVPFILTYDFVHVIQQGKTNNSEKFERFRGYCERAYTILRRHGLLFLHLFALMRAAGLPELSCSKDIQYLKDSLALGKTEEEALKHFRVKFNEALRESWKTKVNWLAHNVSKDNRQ

[7] = target: Phosphatidylinositol 4,5-bisphosphate 3-kinase catalytic subunit alpha isoform (Homo sapiens, UniProt P42336); test: Inhibition of PI3K p110alpha (unknown origin)
[8] = target: Phosphatidylinositol 4,5-bisphosphate 3-kinase catalytic subunit gamma isoform (Homo sapiens, UniProt P48736)
CNE-2 = test: Antiproliferative activity against human CNE2 cells after 72 hrs by MTT assay; type: functional, cell-based; settings: CNE-2, 72 h
[9] = target: Phosphatidylinositol 4,5-bisphosphate 3-kinase catalytic subunit beta isoform (Homo sapiens, UniProt P42338); test: Inhibition of PI3K p110beta (unknown origin)
U2OS = test: Inhibition of autophagy in human U2OS cells stably expressing tfLC3; type: functional
[10] = Cytotoxicity in human U2OS cells incubated for 24 to 48 hrs by CellTiter Glo assay; type: cell-based; settings: read-out: LD50 (the source's name)

Chain of AMP-activated protein kinase (AMPK) alpha-1/beta-1/gamma-1 (P54619 whole entry): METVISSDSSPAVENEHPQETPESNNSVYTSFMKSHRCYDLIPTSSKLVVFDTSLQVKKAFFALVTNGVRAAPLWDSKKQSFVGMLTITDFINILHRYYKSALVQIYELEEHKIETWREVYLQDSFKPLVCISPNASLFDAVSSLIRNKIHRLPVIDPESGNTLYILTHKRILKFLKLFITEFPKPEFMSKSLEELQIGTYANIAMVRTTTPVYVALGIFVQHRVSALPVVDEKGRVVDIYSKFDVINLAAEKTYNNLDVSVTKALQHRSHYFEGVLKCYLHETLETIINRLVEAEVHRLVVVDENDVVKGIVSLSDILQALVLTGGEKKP
Chain of AMP-activated protein kinase (AMPK) alpha-1/beta-1/gamma-1 (Q9Y478 whole entry): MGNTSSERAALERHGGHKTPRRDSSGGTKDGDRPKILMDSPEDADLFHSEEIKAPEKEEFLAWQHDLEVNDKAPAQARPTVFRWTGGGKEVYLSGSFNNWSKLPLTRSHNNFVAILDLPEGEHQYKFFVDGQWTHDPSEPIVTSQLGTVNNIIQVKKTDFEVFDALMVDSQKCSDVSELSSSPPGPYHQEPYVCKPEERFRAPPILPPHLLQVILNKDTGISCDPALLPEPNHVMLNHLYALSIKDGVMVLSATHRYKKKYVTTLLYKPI
Chain of AMP-activated protein kinase (AMPK) alpha-1/beta-1/gamma-1 (Q13131 whole entry): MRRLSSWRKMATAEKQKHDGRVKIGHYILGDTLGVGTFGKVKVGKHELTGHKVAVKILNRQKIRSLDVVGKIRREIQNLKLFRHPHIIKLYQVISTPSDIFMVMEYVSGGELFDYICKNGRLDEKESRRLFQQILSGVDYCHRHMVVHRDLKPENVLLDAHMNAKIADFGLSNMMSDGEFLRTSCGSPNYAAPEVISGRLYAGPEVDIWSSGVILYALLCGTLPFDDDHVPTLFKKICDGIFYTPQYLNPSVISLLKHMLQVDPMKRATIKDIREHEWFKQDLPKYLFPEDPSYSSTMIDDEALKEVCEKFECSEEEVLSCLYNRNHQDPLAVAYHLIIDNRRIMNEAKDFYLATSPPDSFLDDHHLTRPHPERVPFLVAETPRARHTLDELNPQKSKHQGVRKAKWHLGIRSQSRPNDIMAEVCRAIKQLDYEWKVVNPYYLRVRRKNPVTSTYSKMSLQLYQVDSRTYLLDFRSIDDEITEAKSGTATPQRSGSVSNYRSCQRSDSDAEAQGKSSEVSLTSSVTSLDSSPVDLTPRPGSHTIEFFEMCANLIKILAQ
Chain of Phosphatidylinositol 4,5-bisphosphate 3-kinase catalytic subunit gamma isoform (P48736 whole entry, canonical isoform): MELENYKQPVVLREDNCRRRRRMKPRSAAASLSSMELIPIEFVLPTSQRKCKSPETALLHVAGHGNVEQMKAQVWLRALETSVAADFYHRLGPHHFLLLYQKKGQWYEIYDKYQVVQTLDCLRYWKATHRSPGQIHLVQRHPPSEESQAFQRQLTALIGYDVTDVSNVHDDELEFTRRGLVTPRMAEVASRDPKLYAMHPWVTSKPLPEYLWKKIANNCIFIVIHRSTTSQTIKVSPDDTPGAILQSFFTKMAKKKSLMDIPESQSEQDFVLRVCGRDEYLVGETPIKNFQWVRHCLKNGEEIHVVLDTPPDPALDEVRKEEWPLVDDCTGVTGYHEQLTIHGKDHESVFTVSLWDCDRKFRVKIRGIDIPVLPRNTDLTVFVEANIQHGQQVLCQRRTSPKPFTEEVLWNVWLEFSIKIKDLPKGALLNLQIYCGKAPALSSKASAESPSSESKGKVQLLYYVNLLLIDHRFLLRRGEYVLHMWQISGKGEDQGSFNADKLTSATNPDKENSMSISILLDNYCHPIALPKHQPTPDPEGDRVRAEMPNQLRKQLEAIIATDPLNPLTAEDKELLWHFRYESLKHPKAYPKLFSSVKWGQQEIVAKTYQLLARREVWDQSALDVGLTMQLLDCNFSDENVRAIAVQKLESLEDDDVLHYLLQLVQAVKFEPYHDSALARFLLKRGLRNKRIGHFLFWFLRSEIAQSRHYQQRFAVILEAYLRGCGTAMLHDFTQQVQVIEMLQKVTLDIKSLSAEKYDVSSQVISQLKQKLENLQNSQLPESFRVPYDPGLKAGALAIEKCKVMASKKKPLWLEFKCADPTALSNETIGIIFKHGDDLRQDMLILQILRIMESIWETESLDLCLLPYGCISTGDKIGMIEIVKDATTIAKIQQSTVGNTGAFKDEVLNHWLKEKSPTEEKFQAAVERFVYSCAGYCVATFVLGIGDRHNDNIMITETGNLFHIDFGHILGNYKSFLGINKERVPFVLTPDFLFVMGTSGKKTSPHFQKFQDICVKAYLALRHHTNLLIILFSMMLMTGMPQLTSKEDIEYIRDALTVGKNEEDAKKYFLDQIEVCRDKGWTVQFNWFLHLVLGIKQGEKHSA
Chain of Phosphatidylinositol 4,5-bisphosphate 3-kinase catalytic subunit beta isoform (P42338 whole entry, canonical isoform): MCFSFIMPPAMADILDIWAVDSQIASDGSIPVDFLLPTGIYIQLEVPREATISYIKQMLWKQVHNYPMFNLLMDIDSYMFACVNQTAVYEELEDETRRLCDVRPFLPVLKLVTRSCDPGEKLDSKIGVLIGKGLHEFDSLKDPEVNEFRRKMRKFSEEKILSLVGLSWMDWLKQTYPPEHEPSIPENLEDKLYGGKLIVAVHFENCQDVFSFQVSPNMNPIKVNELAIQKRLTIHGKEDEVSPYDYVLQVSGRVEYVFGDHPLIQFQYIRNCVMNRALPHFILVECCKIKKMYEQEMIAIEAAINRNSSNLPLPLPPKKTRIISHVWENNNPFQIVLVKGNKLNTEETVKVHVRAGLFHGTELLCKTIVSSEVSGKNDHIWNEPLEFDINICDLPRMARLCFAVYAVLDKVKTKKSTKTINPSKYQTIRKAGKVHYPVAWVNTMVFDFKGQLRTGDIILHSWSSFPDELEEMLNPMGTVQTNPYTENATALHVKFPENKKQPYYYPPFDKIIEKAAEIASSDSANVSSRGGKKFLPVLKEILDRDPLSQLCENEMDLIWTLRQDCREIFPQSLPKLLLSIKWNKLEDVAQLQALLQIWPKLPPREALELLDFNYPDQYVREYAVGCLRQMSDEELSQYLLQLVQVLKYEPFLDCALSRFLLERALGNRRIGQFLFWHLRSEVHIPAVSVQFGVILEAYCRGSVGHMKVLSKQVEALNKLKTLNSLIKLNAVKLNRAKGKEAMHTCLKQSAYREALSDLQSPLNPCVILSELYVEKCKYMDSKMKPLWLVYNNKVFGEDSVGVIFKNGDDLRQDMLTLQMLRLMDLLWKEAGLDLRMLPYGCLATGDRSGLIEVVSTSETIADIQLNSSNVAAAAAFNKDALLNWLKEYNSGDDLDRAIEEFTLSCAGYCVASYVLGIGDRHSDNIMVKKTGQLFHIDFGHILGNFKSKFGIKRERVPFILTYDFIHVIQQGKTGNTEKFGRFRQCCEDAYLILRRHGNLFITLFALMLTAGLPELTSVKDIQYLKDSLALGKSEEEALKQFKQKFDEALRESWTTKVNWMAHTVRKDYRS
Chain of Phosphatidylinositol 4,5-bisphosphate 3-kinase catalytic subunit alpha isoform (P42336 whole entry, canonical isoform): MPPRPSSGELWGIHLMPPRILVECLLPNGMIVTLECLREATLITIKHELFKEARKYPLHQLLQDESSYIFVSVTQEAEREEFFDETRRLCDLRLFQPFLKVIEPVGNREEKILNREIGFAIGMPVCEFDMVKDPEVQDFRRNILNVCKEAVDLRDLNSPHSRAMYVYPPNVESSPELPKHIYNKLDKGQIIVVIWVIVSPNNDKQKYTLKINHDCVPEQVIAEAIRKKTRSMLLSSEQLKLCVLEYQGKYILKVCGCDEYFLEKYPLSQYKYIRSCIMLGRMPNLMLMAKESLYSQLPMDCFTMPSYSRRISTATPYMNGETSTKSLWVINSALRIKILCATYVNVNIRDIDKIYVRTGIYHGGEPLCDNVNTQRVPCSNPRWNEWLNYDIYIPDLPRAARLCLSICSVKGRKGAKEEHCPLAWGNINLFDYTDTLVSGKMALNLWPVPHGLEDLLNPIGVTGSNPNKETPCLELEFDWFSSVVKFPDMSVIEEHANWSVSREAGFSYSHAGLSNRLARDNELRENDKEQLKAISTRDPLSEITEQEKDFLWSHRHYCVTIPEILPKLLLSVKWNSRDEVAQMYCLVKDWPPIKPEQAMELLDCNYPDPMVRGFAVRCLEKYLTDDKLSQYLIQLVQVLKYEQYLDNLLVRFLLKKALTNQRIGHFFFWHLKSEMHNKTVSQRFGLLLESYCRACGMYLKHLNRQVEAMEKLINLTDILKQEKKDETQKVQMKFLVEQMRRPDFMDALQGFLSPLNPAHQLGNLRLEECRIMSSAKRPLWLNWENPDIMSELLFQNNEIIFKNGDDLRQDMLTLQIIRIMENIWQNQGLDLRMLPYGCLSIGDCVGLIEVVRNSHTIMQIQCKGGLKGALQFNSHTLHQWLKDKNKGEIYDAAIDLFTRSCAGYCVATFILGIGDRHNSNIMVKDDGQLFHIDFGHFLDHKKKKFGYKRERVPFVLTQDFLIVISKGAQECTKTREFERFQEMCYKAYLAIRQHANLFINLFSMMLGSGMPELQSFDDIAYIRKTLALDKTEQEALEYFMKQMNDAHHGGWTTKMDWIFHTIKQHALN

**Q.** For `CN1CCN(Cc2cc(CNC3(c4ccccc4F)CCCC3)ccc2O)CC1`, which IC50 (BT-474) is on record?
**A.** 23.5 to 30.1 µM

**Q.** And the pKa [1]?
**A.** > 7.5

**Q.** For `CNC(=O)c1ccccc1Oc1nc(Nc2cc(OC)c(OC)c(OC)c2)ncc1Br`, which IC50 [2] is on record?
**A.** 0.011 µM

**Q.** What does the source list for `CN1CCc2cc(Nc3ncc(C4CC4)c(NCCCNC(=O)C4CCC4)n3)ccc2C1`?
**A.** IC50 [3]: 0.0011 µM; IC50 [4]: 0.0029 µM

**Q.** For `O=C(/C=C/c1ccc2c(c1)OCO2)CC1(O)C(=O)Nc2ccccc21` (centres undefined), which IC50 (mTORC1) is on record?
**A.** 0.001 to 0.005 µM

**Q.** And the IC50 (mTORC2)?
**A.** 0.001 to 0.005 µM

**Q.** Which results are given for `COC(=O)Nc1ccc(-c2nc(N3CCOCC3)c3cnn(C4CCN(C(=O)OC)CC4)c3n2)cc1`?
**A.** IC50 (mTORC1): 0.005 to 0.009 µM; IC50 (mTORC2): 0.005 to 0.009 µM

**Q.** For `CC1(CN2C(=O)S/C(=C\c3ccc(NS(=O)(=O)c4ccc([N+](=O)[O-])c(C(F)(F)F)c4)cc3)C2=O)CCCCC1`, which EC50 [5] is on record?
**A.** 0.3 µM

**Q.** Which IC50 (BT-474) does the source give for `CCN(CC)CCCC(C)Nc1ccnc2cc(Cl)ccc12` (centres undefined) [CHLOROQUINE] here?
**A.** > 1000 µM

**Q.** With `COC(=O)Nc1nc2cc(C(=O)c3ccc(F)cc3)ccc2[nH]1` [FLUBENDAZOLE] as the compound, how does the Activity (MDA-MB-231) read?
**A.** 50%

**Q.** Which results are given for `c1cnc2ccc(Nc3nc(NC4CC4)c4nc[nH]c4n3)cc2c1` [PUQUITINIB MESYLATE DIHYDRATE]?
**A.** IC50 [6]: 0.0028 µM; IC50 [7]: 0.767 µM; IC50 [8]: 0.0897 µM; IC50 (CNE-2): 5.2 µM; IC50 [9]: 0.699 µM

**Q.** With `CCN(CC)CCCC(C)Nc1c2ccc(Cl)cc2nc2ccc(OC)cc12` (centres undefined) [QUINACRINE] as the compound, how does the EC (U2OS) read?
**A.** 0.2 µM

**Q.** And the CC50 [10]?
**A.** 2.5 µM
